Assay results as given in patent US20240167030A1, “METHODS AND COMPOSITIONS FOR ACCELERATING OLIGODENDROCYTE MATURATION” (Case Western Reserve University, priority 2021, published 2024).

What was measured:
Assay type in all cases: cell-based, mouse
[1] = tested on: SOX6; experiment: Western blot of SOX6 in CRISPR-Cas9 knockout OPCs; settings: knockout OPCs compared to non-targeting control (sgNTC)
Description: Generation of mouse CRISPR KO OPCs: CRISPR knockout (KO) OPCs were created following a similar protocol used previously (Allan et al., 2020; Tripathi et al., 2019). In brief, guides were selected from the Brie library (Doench et al., 2016), cloned into the linearized CRISPRv2 backbone (Addgene 52961) (Sanjana et al., 2014), and sequence verified by sanger sequencing. HEK293T cells (Clonetech) were than transfected using lenti-X shots (manufacturer's protocol, Clonetech). Transfection media was replaced with N2B27 base media the following day. Lentivirus containing N2B27 was then collected after an additional 2 days, filtered, and supplemented with OPC growth factors PDGFA and FGF2 and added to OPCs at a ratio of 1:2 viral media to OPC growth media. The viral media was switched out for virus-free OPC growth the next day and allowed to recover for an additional 2 days. […]
Western blot: For cell culture derived protein samples, at least 1 million OPCs were collected and lysed in RIPA buffer (Sigma) supplemented with protease and phosphatase inhibitor (78441, Thermo Fisher) for at least 15 minutes and cleared by centrifugation at 13,000 g at 4° C. for 15 minutes. Protein concentrations were determined using the Bradford assay (Bio-Rad Laboratories). […] Membranes were then imaged and analyzed using Image Studio™ software. […]

[2] = tested on: oligodendrocytes; experiment: RNA-seq gene set enrichment analysis (GSEA) of SOX6 knockout oligodendrocytes; settings: SOX6 knockout vs control (sgNTC) oligodendrocytes, day 3 of differentiation
Description: Generation of mouse CRISPR KO OPCs: CRISPR knockout (KO) OPCs were created following a similar protocol used previously (Allan et al., 2020; Tripathi et al., 2019). In brief, guides were selected from the Brie library (Doench et al., 2016), cloned into the linearized CRISPRv2 backbone (Addgene 52961) (Sanjana et al., 2014), and sequence verified by sanger sequencing. HEK293T cells (Clonetech) were than transfected using lenti-X shots (manufacturer's protocol, Clonetech). Transfection media was replaced with N2B27 base media the following day. Lentivirus containing N2B27 was then collected after an additional 2 days, filtered, and supplemented with OPC growth factors PDGFA and FGF2 and added to OPCs at a ratio of 1:2 viral media to OPC growth media. The viral media was switched out for virus-free OPC growth the next day and allowed to recover for an additional 2 days. At this point, infected OPCs were selected for 96 hours in OPC growth media supplemented with a lethal dose of puromcyin (500 ng/mL). OPCs were allowed to recover in selection free media for at least 24 hours prior to being aliquoted and frozen down. For all experiments, infected CRISPR KO and non-targeting control OPCs were derived from the same original batch of EpiSC-derived mouse OPCs. qPCR was performed to validate a reduction of gene targets for each batch of CRISPR KO OPCs generated.
Bulk RNA-seq sample preparation and alignment: OPCs were lysed in TRIzol and RNA was isolated as described for qPCR. Purified RNA was then submitted to Novogene for library preparation and sequencing on the Illumina NovaSeq (150 bp paired end). For gene expression analysis, reads were aligned to the mm10 genome and quantified in transcripts per million (TPM) values using salmon 0.14.1 (github dot com slash COMBINE-lab slash salmon). Transcripts were summarized as gene-level TPM abundances with tximport. A gene with TPM>1 was considered expressed. Differential expression analysis was performed using DESEQ2 (bioconductor.org slash packages slash release slash bioc slash html slash DESeq2 dot html). Significant genes were called based on p-adj and fold change values as described in the results section.
RNA-seq was then performed on SOX6 knockout OPCs and differentiating oligodendrocyte cultures compared to non-targeting controls (FIGS. 10B and 11A). In agreement with binding at nearly all super-enhancers in OPCs, Sox6 knockout OPCs harbored a reduction in OPC signature genes and transcription factors such as Cspg4 and Sox10 (FIGS. 11A-11C). In differentiating oligodendrocytes, loss of SOX6 led to a reduction in Sox6 condensate gene expression (FIGS. 10B, 10C, and 11D). In agreement with these condensate genes stabilizing genes transiently expressed by intermediate oligodendrocytes, SOX6 knockout oligodendrocytes harbored a significant reduction in intermediate oligodendrocyte gene expression (FIGS. 10D and 11E).

[3] = tested on: SOX6 biomolecular condensates; experiment: confocal immunofluorescence coupled with RNA-FISH of Sox6 condensates in intermediate oligodendrocytes; settings: upon addition of the drug
Description: Given the massive density of SOX6, an inherently disordered protein, at super-enhancer associated genes that increase sharply in intermediate oligodendrocytes and then decrease in myelinating oligodendrocytes, it was hypothesized that these regions represent SOX6 biomolecular condensates that stabilize, not inhibit, the intermediate oligodendrocyte state (FIGS. 8F and 8G) (Daneshvar et al., 2020; Henninger et al., 2020; Hnisz et al., 2017; Sabari et al., 2018). Performing high resolution confocal microscopy of immunofluorescence coupled with RNA-FISH confirmed Sox6 puncta in intermediate oligodendrocytes that co-localized with the predicted Sox6 aggregate gene Bcas1, whereas this co-localization was severely diminished at the non-aggregate gene Gapdh.

sgSox6 g1: single guide RNA for CRISPR-Cas9 SOX6 knockout, sequence TTGACGGAATGAACTGTACG (listed as DNA, chemistry not given here)
SOX6 expression [1]: strong reduction
GSEA of SOX6 aggregate (condensate) genes [2]: significant depletion
GSEA of in vivo OPC signature genes [2]: significant depletion
GSEA of in vivo intermediate oligodendrocyte signature genes [2]: significant depletion
GSEA of in vivo myelinating oligodendrocyte signature genes [2]: enrichment

Cc1sc2c(c1C)C(c1ccc(Cl)cc1)=N[C@@H](CC(=O)OC(C)(C)C)c1nnc(C)n1-2 [JQ1]
effect on Sox6 biomolecular condensates [3]: dissolved

sgSox6 g2: single guide RNA for CRISPR-Cas9 SOX6 knockout, sequence AGAACACGCTTTGAGAACCT (listed as DNA, chemistry not given here)
SOX6 expression [1]: strong reduction
GSEA of SOX6 aggregate (condensate) genes [2]: significant depletion
GSEA of in vivo OPC signature genes [2]: significant depletion
GSEA of in vivo intermediate oligodendrocyte signature genes [2]: significant depletion
GSEA of in vivo myelinating oligodendrocyte signature genes [2]: enrichment
